# Columns and labels:
# Parameters in all cases: key: −: it showed no change; +: it showed a slight reduction of the color spot of the substrate and the formation of other reaction product; ++: it showed a high reduction of the color spot of the substrate and the formation of other reaction product; +++: it showed a substantial disappearance of the substrate spot and the formation of other reaction product
# [1] = system: α-isomaltosylglucosaccharide-forming enzyme; experiment: Action on saccharides (substrates), Enzyme of Strain C11; type: biochemical, Bacillus globisporus C11; settings: two units/g substrate, substrate 2% (w/v), 30° C., pH 6.0, 24 hours, TLC
# Procedure: (§1) It was tested whether saccharides can be used as substrates for the α-isomaltosylglucosaccharide-forming enzyme. For the purpose, a solution of maltose, maltotriose, maltotetraose, maltopentaose, maltohexaose, maltoheptaose, isomaltose, isomaltotriose, panose, isopanose, trehalose, kojibiose, nigerose, neotrehalose, cellobiose, gentibiose, maltitol, maltotriitol, lactose, sucrose, erlose, selaginose, maltosyl glucoside, or isomaltosyl glucoside was prepared.
# (§2) To each of the above solutions was added two units/g substrate of a purified specimen of α-isomaltosylglucosaccharide-forming enzyme from either Bacillus globisporus C9 obtained by the method in Experiment 4-2, Bacillus globisporus C11 obtained by the method in Experiment 7-2, Bacillus globisporus N75 obtained by the method in Experiment 11-2, or Arthrobacter globiformis A19 obtained by the method in Experiment 15-2, and the resulting each solution was adjusted to give a substrate concentration of 2% (w/v) and incubated at 30° C. and pH 6.0, except for using pH 8.4 for the enzyme from Arthrobacter globiformis A19, for 24 hours. The enzyme solutions before and after the enzymatic reactions were respectively analyzed on TLC disclosed in Experiment 1 to confirm whether the enzymes acted on these substrates.
# [2] = system: α-isomaltosylglucosaccharide-forming enzyme; experiment: Action on saccharides (substrates), Enzyme of Strain C9; type: biochemical, Bacillus globisporus C9; settings: two units/g substrate, substrate 2% (w/v), 30° C., pH 6.0, 24 hours, TLC
# Procedure: as §1, §2
# [3] = system: α-isomaltosylglucosaccharide-forming enzyme; experiment: Action on saccharides (substrates), Enzyme of Strain N75; type: biochemical, Bacillus globisporus N75; settings: two units/g substrate, substrate 2% (w/v), 30° C., pH 6.0, 24 hours, TLC
# Procedure: as §1, §2
# [4] = system: α-isomaltosylglucosaccharide-forming enzyme; experiment: Action on saccharides (substrates), Enzyme of Strain A19; type: biochemical, Arthrobacter globiformis A19; settings: two units/g substrate, substrate 2% (w/v), 30° C., pH 8.4, 24 hours, TLC
# Procedure: as §1, §2
Compound,"Enzymatic action, Enzyme of Strain C11 [1]","Enzymatic action, Enzyme of Strain C9 [2]","Enzymatic action, Enzyme of Strain N75 [3]","Enzymatic action, Enzyme of Strain A19 [4]"
OC[C@H]1O[C@@](CO)(O[C@H]2O[C@H](CO)[C@@H](O[C@H]3O[C@H](CO)[C@@H](O)[C@H](O)[C@H]3O)[C@H](O)[C@H]2O)[C@@H](O)[C@@H]1O [Erlose],+,+,+,+
OC[C@H]1O[C@H](O[C@H]2[C@H](O)[C@@H](O)[C@@H](OC[C@H]3OC(O)[C@H](O)[C@@H](O)[C@@H]3O)O[C@@H]2CO)[C@H](O)[C@@H](O)[C@@H]1O (stereo partly drawn) [Isopanose],++,++,++,++
OC[C@H]1O[C@H](O[C@H]2C(O)O[C@H](CO)[C@@H](O)[C@@H]2O)[C@H](O)[C@@H](O)[C@@H]1O (stereo partly drawn) [Kojibiose],+,+,+,+
OC[C@H]1O[C@H](O[C@H]2[C@H](O)[C@@H](O)[C@H](O)O[C@@H]2CO)[C@H](O)[C@@H](O)[C@@H]1O [Maltose],+,+,+,+
OC[C@H]1O[C@H](O[C@H]2O[C@H](CO)[C@@H](O[C@H]3O[C@H](CO)[C@@H](O)[C@H](O)[C@H]3O)[C@H](O)[C@H]2O)[C@H](O)[C@@H](O)[C@@H]1O [Maltosyl glucoside],++,++,++,++
OC[C@H]1O[C@H](O[C@H]2[C@H](O)[C@@H](O)[C@@H](O[C@H]3[C@H](O)[C@@H](O)[C@@H](O[C@H]4[C@H](O)[C@@H](O)C(O)O[C@@H]4CO)O[C@@H]3CO)O[C@@H]2CO)[C@H](O)[C@@H](O)[C@@H]1O (stereo partly drawn) [Maltotetraose],+++,+++,+++,+++
OC[C@@H](O)[C@@H](O[C@H]1O[C@H](CO)[C@@H](O[C@H]2O[C@H](CO)[C@@H](O)[C@H](O)[C@H]2O)[C@H](O)[C@H]1O)[C@H](O)[C@@H](O)CO [Maltotriitol],+,+,+,+
OC[C@H]1O[C@@H](O[C@H]2O[C@H](CO)[C@@H](O)[C@H](O)[C@H]2O)[C@H](O)[C@@H](O)[C@@H]1O [Neotrehalose],+,+,+,+
OC[C@H]1O[C@H](O[C@H]2[C@H](O)[C@@H](CO)OC(O)[C@@H]2O)[C@H](O)[C@@H](O)[C@@H]1O (stereo partly drawn) [Nigerose],+,+,+,+
OC[C@H]1O[C@H](OC[C@H]2O[C@H](O[C@H]3[C@H](O)[C@@H](O)C(O)O[C@@H]3CO)[C@H](O)[C@@H](O)[C@@H]2O)[C@H](O)[C@@H](O)[C@@H]1O (stereo partly drawn) [Panose],−,−,−,−
OC[C@H]1O[C@H](O[C@H]2O[C@H](CO)[C@@H](O)[C@H](O)[C@H]2O[C@H]2O[C@H](CO)[C@@H](O)[C@H](O)[C@H]2O)[C@H](O)[C@@H](O)[C@@H]1O [Selaginose],−,−,−,−
Isomaltosyl glucoside,−,−,−,−

# Reference: patent publication US7811797B2, “α-isomaltosylglucosaccharide-forming enzyme, process and uses of the same” (Kabushiki Kaisha Hayashibara Seibutsu Kagaku Kenkyujo, priority 2000, dated 2010)
